In PubChem BioAssay (NCI):
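Five concentrations, 48 hours, 96-well plates. The concentration for full growth arrest is given as TGI.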

Experiments:
Assay in all cases: NCI anticancer screen, dose series, 48 h
NCI-H460 lung = system: NCI-H460 lung
UACC-62 melanoma = system: UACC-62 melanoma
M14 melanoma = system: M14 melanoma
HS 578T breast = system: HS 578T breast
SK-MEL-2 melanoma = system: SK-MEL-2 melanoma
CAKI-1 renal = system: CAKI-1 renal
RXF 393 renal = system: RXF 393 renal
SN12C renal = system: SN12C renal
NCI-H522 lung = system: NCI-H522 lung
A549 NSCLC = system: A549 NSCLC
OVCAR-3 ovarian = system: OVCAR-3 ovarian
MOLT-4 leukemia = system: MOLT-4 leukemia
U251 CNS = system: U251 CNS
COLO 205 colon = system: COLO 205 colon
SW-620 colon = system: SW-620 colon
HCT-116 colon = system: HCT-116 colon
MDA-MB-435 = system: MDA-MB-435
RPMI-8226 leukemia = system: RPMI-8226 leukemia
UO-31 renal = system: UO-31 renal
SK-OV-3 ovarian = system: SK-OV-3 ovarian
HT29 colon = system: HT29 colon
MCF7 breast = system: MCF7 breast
786-0 renal = system: 786-0 renal
ACHN renal = system: ACHN renal
T-47D breast = system: T-47D breast
OVCAR-5 ovarian = system: OVCAR-5 ovarian
SK-MEL-28 melanoma = system: SK-MEL-28 melanoma
UACC-257 melanoma = system: UACC-257 melanoma
BT-549 breast = system: BT-549 breast
SF-268 CNS = system: SF-268 CNS
NCI-H226 lung = system: NCI-H226 lung
HL-60(TB) leukemia = system: HL-60(TB) leukemia
LOX IMVI melanoma = system: LOX IMVI melanoma
OVCAR-8 ovarian = system: OVCAR-8 ovarian
CCRF-CEM leukemia = system: CCRF-CEM leukemia
MDA-MB-231 breast = system: MDA-MB-231 breast
SK-MEL-5 melanoma = system: SK-MEL-5 melanoma
OVCAR-4 ovarian = system: OVCAR-4 ovarian
NCI-H23 lung = system: NCI-H23 lung
MALME-3M melanoma = system: MALME-3M melanoma
SF-295 CNS = system: SF-295 CNS
MDA-N = system: MDA-N
HOP-62 NSCLC = system: HOP-62 NSCLC
SR leukemia = system: SR leukemia
KM12 colon = system: KM12 colon
TK-10 renal = system: TK-10 renal
PC-3 prostate = system: PC-3 prostate
NCI/ADR-RES ovarian = system: NCI/ADR-RES ovarian
SF-539 CNS = system: SF-539 CNS
IGROV1 ovarian = system: IGROV1 ovarian
K-562 leukemia = system: K-562 leukemia
EKVX NSCLC = system: EKVX NSCLC
HOP-92 NSCLC = system: HOP-92 NSCLC
A498 renal = system: A498 renal
DU-145 prostate = system: DU-145 prostate
HCT-15 colon = system: HCT-15 colon
SNB-75 CNS = system: SNB-75 CNS
DLD-1 colon = system: DLD-1 colon
M19-MEL melanoma = system: M19-MEL melanoma
HCC-2998 colon = system: HCC-2998 colon
KM20L2 colon = system: KM20L2 colon
SNB-19 CNS = system: SNB-19 CNS
DMS 273 small cell lung = system: DMS 273 small cell lung
DMS 114 small cell lung = system: DMS 114 small cell lung
LXFL 529 NSCLC = system: LXFL 529 NSCLC
SNB-78 CNS = system: SNB-78 CNS
HOP-18 NSCLC = system: HOP-18 NSCLC

O=[N+]([O-])c1nccn1CCCN=c1c2ccccc2n(O)c2ccccc12
TGI (NCI-H460 lung): > 100 µM | TGI (UACC-62 melanoma): > 100 µM | TGI (M14 melanoma): > 100 µM | TGI (HS 578T breast): > 100 µM | TGI (SK-MEL-2 melanoma): > 100 µM | TGI (CAKI-1 renal): > 100 µM | TGI (RXF 393 renal): > 100 µM | TGI (SN12C renal): > 100 µM | TGI (NCI-H522 lung): > 100 µM | TGI (A549 NSCLC): > 100 µM | TGI (OVCAR-3 ovarian): > 100 µM | TGI (MOLT-4 leukemia): > 100 µM | TGI (U251 CNS): > 100 µM | TGI (COLO 205 colon): 55.6 µM | TGI (SW-620 colon): > 100 µM | TGI (HCT-116 colon): > 100 µM | TGI (MDA-MB-435): > 100 µM | TGI (RPMI-8226 leukemia): > 100 µM | TGI (UO-31 renal): > 100 µM | TGI (SK-OV-3 ovarian): > 100 µM | TGI (HT29 colon): > 100 µM | TGI (MCF7 breast): > 100 µM | TGI (786-0 renal): > 100 µM | TGI (ACHN renal): > 100 µM | TGI (T-47D breast): > 100 µM | TGI (OVCAR-5 ovarian): > 100 µM | TGI (SK-MEL-28 melanoma): > 100 µM | TGI (UACC-257 melanoma): > 100 µM | TGI (BT-549 breast): > 100 µM | TGI (SF-268 CNS): > 100 µM | TGI (NCI-H226 lung): > 100 µM | TGI (HL-60(TB) leukemia): > 100 µM | TGI (LOX IMVI melanoma): > 100 µM | TGI (OVCAR-8 ovarian): > 100 µM | TGI (CCRF-CEM leukemia): > 100 µM | TGI (MDA-MB-231 breast): > 100 µM | TGI (SK-MEL-5 melanoma): > 100 µM | TGI (OVCAR-4 ovarian): > 100 µM | TGI (NCI-H23 lung): > 100 µM | TGI (MALME-3M melanoma): > 100 µM | TGI (SF-295 CNS): > 100 µM | TGI (MDA-N): > 100 µM | TGI (HOP-62 NSCLC): > 100 µM | TGI (SR leukemia): > 100 µM | TGI (KM12 colon): > 100 µM | TGI (TK-10 renal): > 100 µM | TGI (PC-3 prostate): > 100 µM | TGI (NCI/ADR-RES ovarian): > 100 µM | TGI (SF-539 CNS): > 100 µM | TGI (IGROV1 ovarian): > 100 µM | TGI (K-562 leukemia): > 100 µM | TGI (EKVX NSCLC): > 100 µM | TGI (HOP-92 NSCLC): > 100 µM | TGI (A498 renal): > 100 µM | TGI (DU-145 prostate): > 100 µM | TGI (HCT-15 colon): > 100 µM | TGI (SNB-75 CNS): > 100 µM

Cc1nc2ccc(N=Nc3c(O)ccc4ccccc34)cc2[nH]1
TGI (NCI-H460 lung): > 87.7 µM | TGI (UACC-62 melanoma): > 63.4 µM | TGI (M14 melanoma): > 81.5 µM | TGI (HS 578T breast): 61.9 µM | TGI (DLD-1 colon): 66.2 µM | TGI (SK-MEL-2 melanoma): > 76.8 µM | TGI (CAKI-1 renal): 49.8 µM | TGI (RXF 393 renal): > 57.9 µM | TGI (SN12C renal): > 74.9 µM | TGI (NCI-H522 lung): 54.3 µM | TGI (A549 NSCLC): > 78.7 µM | TGI (OVCAR-3 ovarian): > 56.2 µM | TGI (MOLT-4 leukemia): 66.2 µM | TGI (U251 CNS): > 67.9 µM | TGI (COLO 205 colon): > 66.6 µM | TGI (SW-620 colon): > 70 µM | TGI (HCT-116 colon): > 58.4 µM | TGI (MDA-MB-435): 45.9 µM | TGI (RPMI-8226 leukemia): > 82.8 µM | TGI (UO-31 renal): > 84.8 µM | TGI (SK-OV-3 ovarian): > 100 µM | TGI (M19-MEL melanoma): 42.7 µM | TGI (HCC-2998 colon): > 70.5 µM | TGI (HT29 colon): > 67.2 µM | TGI (KM20L2 colon): > 100 µM | TGI (MCF7 breast): 44.9 µM | TGI (786-0 renal): 54.4 µM | TGI (ACHN renal): > 57.2 µM | TGI (T-47D breast): 41 µM | TGI (SNB-19 CNS): > 100 µM | TGI (DMS 273 small cell lung): 33.5 µM | TGI (OVCAR-5 ovarian): > 100 µM | TGI (SK-MEL-28 melanoma): > 100 µM | TGI (UACC-257 melanoma): > 63.5 µM | TGI (DMS 114 small cell lung): 63 µM | TGI (LXFL 529 NSCLC): 37.3 µM | TGI (BT-549 breast): 59.7 µM | TGI (SF-268 CNS): > 100 µM | TGI (NCI-H226 lung): > 100 µM | TGI (HL-60(TB) leukemia): 46.8 µM | TGI (LOX IMVI melanoma): 32.4 µM | TGI (OVCAR-8 ovarian): 69.6 µM | TGI (CCRF-CEM leukemia): > 58.3 µM | TGI (MDA-MB-231 breast): 53.6 µM | TGI (SK-MEL-5 melanoma): > 65.1 µM | TGI (OVCAR-4 ovarian): 35.1 µM | TGI (NCI-H23 lung): > 100 µM | TGI (MALME-3M melanoma): > 66.5 µM | TGI (SF-295 CNS): > 100 µM | TGI (MDA-N): 36.7 µM | TGI (HOP-62 NSCLC): > 100 µM | TGI (SR leukemia): 55.4 µM | TGI (KM12 colon): > 100 µM | TGI (TK-10 renal): > 100 µM | TGI (PC-3 prostate): 48.1 µM | TGI (NCI/ADR-RES ovarian): 60.2 µM | TGI (SF-539 CNS): > 62.3 µM | TGI (IGROV1 ovarian): > 67 µM | TGI (K-562 leukemia): > 100 µM | TGI (EKVX NSCLC): > 83.6 µM | TGI (HOP-92 NSCLC): 42.8 µM | TGI (A498 renal): > 92.7 µM | TGI (DU-145 prostate): > 100 µM | TGI (SNB-78 CNS): > 100 µM | TGI (HCT-15 colon): > 63.5 µM | TGI (SNB-75 CNS): > 100 µM

CCC1(O)C(=O)OCc2c1cc1n(c2=O)Cc2c-1nc1ccccc1c2OC (configuration not stated)
TGI (UACC-62 melanoma): 0.413 µM | TGI (M14 melanoma): 0.445 µM | TGI (DLD-1 colon): > 100 µM | TGI (SK-MEL-2 melanoma): 14.7 µM | TGI (CAKI-1 renal): 1.8 µM | TGI (RXF 393 renal): 0.11 µM | TGI (NCI-H522 lung): 0.984 µM | TGI (A549 NSCLC): 1.85 µM | TGI (OVCAR-3 ovarian): 5.85 µM | TGI (MOLT-4 leukemia): < 0.0195 µM | TGI (U251 CNS): 0.0801 µM | TGI (COLO 205 colon): 13.9 µM | TGI (SW-620 colon): 29 µM | TGI (HCT-116 colon): 1.21 µM | TGI (RPMI-8226 leukemia): 0.511 µM | TGI (UO-31 renal): 0.249 µM | TGI (HOP-18 NSCLC): > 77.9 µM | TGI (SK-OV-3 ovarian): 7.47 µM | TGI (M19-MEL melanoma): 1.89 µM | TGI (HCC-2998 colon): 5.77 µM | TGI (HT29 colon): > 87.1 µM | TGI (786-0 renal): 0.0249 µM | TGI (ACHN renal): 0.06 µM | TGI (SNB-19 CNS): > 29.2 µM | TGI (DMS 273 small cell lung): 0.108 µM | TGI (OVCAR-5 ovarian): 27.4 µM | TGI (SK-MEL-28 melanoma): > 53.8 µM | TGI (UACC-257 melanoma): 2.68 µM | TGI (DMS 114 small cell lung): 1.26 µM | TGI (LXFL 529 NSCLC): > 69.6 µM | TGI (SF-268 CNS): 2.31 µM | TGI (NCI-H226 lung): 0.12 µM | TGI (HL-60(TB) leukemia): < 0.0341 µM | TGI (LOX IMVI melanoma): 0.441 µM | TGI (OVCAR-8 ovarian): > 100 µM | TGI (CCRF-CEM leukemia): < 0.01 µM | TGI (SK-MEL-5 melanoma): 0.205 µM | TGI (OVCAR-4 ovarian): 2.55 µM | TGI (NCI-H23 lung): 0.0749 µM | TGI (MALME-3M melanoma): 25.3 µM | TGI (SF-295 CNS): 11.3 µM | TGI (HOP-62 NSCLC): < 0.01 µM | TGI (SR leukemia): < 0.01 µM | TGI (KM12 colon): 10.8 µM | TGI (TK-10 renal): > 100 µM | TGI (SF-539 CNS): 0.0414 µM | TGI (IGROV1 ovarian): 5.65 µM | TGI (K-562 leukemia): > 100 µM | TGI (EKVX NSCLC): > 54.5 µM | TGI (HOP-92 NSCLC): 3.57 µM | TGI (A498 renal): 0.319 µM | TGI (SNB-78 CNS): > 100 µM | TGI (HCT-15 colon): 23.7 µM | TGI (SNB-75 CNS): 0.129 µM
